# Columns and labels:
# [1] = molecular target: T1, amyloid-β fibrils (Aβ1–40) (Homo sapiens, UniProt P05067); assay: time-resolved photoluminescence titration, two-site non-cooperative fit; assay type: binding; details: read-out: Values ^a
# T1 construct: gene APP; synthetic Aβ1–40, fibrillar
# [2] = molecular target: T1, amyloid-β fibrils (Aβ1–40); assay: time-resolved photoluminescence titration, two-site fit; assay type: binding
# T1 sequence (P05067 672-711): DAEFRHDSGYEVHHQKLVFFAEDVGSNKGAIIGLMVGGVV
SMILES,Kd [1] [µM],Kd [2] [µM]
[Ru+2].c1ccc(-c2ccccn2)nc1.c1ccc(-c2ccccn2)nc1.c1cnc2c(c1)c1nc3nccnc3nc1c1cccnc12 [[Ru(bpy)2(dpqp)]^2+],2.2 ± 0.5,–
[Ru+2].c1ccc(-c2ccccn2)nc1.c1ccc(-c2ccccn2)nc1.c1ccc(-c2ccccn2)nc1 [[Ru(bpy)3]^2+],–,4.6

# — paper PMC9891369, “Deconvoluting binding sites in amyloid nanofibrils using time-resolved spectroscopy” (Chemical Science, 2023)
